According to patent US20210087279A1, “REGULATABLE CHIMERIC ANTIGEN RECEPTOR” (Novartis AG, priority 2014, published 2021):

What was measured:
[1] = target: biotinylated FKBP in the presence of everolimus; assay: FRB direct binding assay (AlphaLISA); conditions: 30 nM biotinylated FKBP and FLAG FRB protein; everolimus serial diluted from 600 nM
Method: FRB mutations were also ranked in an alternative assay format. […] All dilutions were made in 1× AlphaLISA Immunoassay buffer (PerkinElmer). Anti-Flag acceptor beads (PerkinElmer) were added at 10 ug/ml final concentration and incubated for one hour at room temperature. Streptavidin donor beads (PerkinElmer), were then added at a final concentration of 40 ug/ml and the plate was protected from light and incubated for 30 minutes at room temperature. The plate was then read on the PerkinElmer EnVision Multiplate reader equipped with the Alpha Module using excitation of 680 nm and a 570 nm Emission filter.

[2] = test system: NFAT activation in Jurkat cells with NFAT-LUC reporter (JNL), PDL1-Fc target; assay: Activation assay of redirected inhibitory PD1 CAR / PD1 RCAR; assay type: cell-based
Method: Jurkat cells with NFAT-LUC reporter (JNL) were grown to the density of 0.5×10^6/ml in Jurkat cell growth media with puromycin at 0.5 μg/ml. For each transfection 3×10^6 cells were spin down at 100 g for 10 minutes. Four μg DNA per construct were used per transfection. Amaxa Nucleofector solution V and supplement I was mixed and 100 μl was added into the tube with DNA construct. The mixture was then added to the cells and transferred to the electroporation cuvette. Electroporation was done under setting X-001 using Amaxa Nucleofector II Device. 0.5 ml of growth media was added immediately after eletroporation and the mixture were transferred into 2 ml growth media in one well of the 6-well plate. After two hours, the rapalogue compound at various concentrations was added to cells. The cells were applied to tissue culture plate wells that were coated by the target. Tissue culture plate was coated with 5 μg/ml of PDL1-Fc or IgG1-Fc or any target for 2 hrs at 37° C., then blocked with the blocking buffer (DPBS with 5% serum) for 30 minutes. The transfected cells were added to the target plate with 100 μl per well and incubated further for 16 hrs. Luciferase One Glo reagent 100 μl was added per well. The samples were incubated for 5 min at 37° C. and then luminescence is measured using Envision plate reader. […]

[3] = test system: NFAT activation in Jurkat cells with NFAT-LUC reporter (JNL); assay: Jurkat NFAT-LUC reporter assay, EGFRvIII RCAR with intracellular FKBP/FRB switch; assay type: cell-based
Method: Jurkat cells with NFAT-LUC reporter (JNL) were grown to the density of 0.5×10^6/ml in Jurkat cell growth media with puromycin at 0.5 μg/ml. For each transfection 2.5×10^6 cells were spin down at 100 g for 10 minutes. Two μg of DNA per construct were used per transfection. Amaxa Nucleofector solution V and supplement I was mixed and 100 μl was added into the tube with DNA construct. The mixture was then added to the cells and transferred to the electroporation cuvette. Electroporation was done under setting X-001 using Amaxa Nucleofector II Device. 0.5 ml of growth media was added immediately after eletroporation and the mixture were transferred into 2 ml growth media in one well of the 6-well plate. After one hour, A/Z compound was applied at the final concentration of 500 nM. The cells were incubated in the 37° C. incubator with 5% CO2 overnight for 18 hrs. Tissue culture plate was coated with 5 μg/ml of EGFRvIII-Fc or IgG1-Fc for 2 hrs, blocked with the blocking buffer (DPBS with 5% serum) for 1 hour. The transfected cells with or without A/Z compound were resuspended and added to the target plate with 100 μl per well and incubated for 18 hrs. Luciferase One Glo reagent 100 μl was added per well. The samples were incubated for 5 min at 37° C. and then luminescence is measured using a luminometer.
Specifically, JNL were grown to the density of 0.5×10^6/ml in Jurkat cell growth media with puromycin at 0.5 μg/ml. For each transfection 2.5×10^6 cells were spin down at 100 g for 10 minutes. Two μg of DNA per construct were used per transfection. Amaxa Nucleofector solution V and supplement I was mixed and 100 μl was added into the tube with DNA construct. […] The samples were incubated for 5 min at 37° C. and then luminescence is measured using a luminometer.
To determine the dose response, rapaloque (“A/C heterodimerizer” AP21967), at various concentrations, was applied to the transfected cells that were cotransfected with EGFRvIII clone 139-CD8alphaTM-FKBP (SEQ ID NO: 5, construct 66) and FRB-4-1BB-CD3zeta (SEQ ID NO: 6, construct 67) and NFAT activation was measured. […]

[4] = test system: NFAT activation in Jurkat cells with NFAT-LUC reporter (JNL); assay: Jurkat NFAT-LUC assay, EGFRvIII RCAR with extracellular FKBP/FRB switch; assay type: cell-based; conditions: 250 nM, external switch
Method: In this example, the switch is designed by fusing a leader sequence to the 139 scFv followed by linker and the first switch domain—FKBP, a hinge region and a transmembrane region (SEQ ID NO: 31). The second construct is designed by fusing a leader sequence to the FRB switch domain, a transmembrane region and the intracellular signaling domains 4-1BB followed by CD3zeta (SEQ ID NO: 32). The extracellular switch transfections and activations were carried out essentially as described for the intacellular switches in Example 1.

[5] = test system: NFAT activation in Jurkat cells with NFAT-LUC reporter (JNL); assay: Jurkat NFAT-LUC assay, peptide tag (myc/Flag) dimerization switch; assay type: cell-based
Method: The non-regulatable CAR construct, 139scFv-BBZ, SEQ ID: 7, will be used as a control. Jurkat cells with NFAT-LUC reporter (JNL) were grown to the density of 0.5×10^6/ml in Jurkat cell growth media with puromycin at 0.5 μg/ml. For each transfection 2.5×10^6 cells were spun down at 100 g for 10 minutes. Two μg of DNA per construct was used per transfection. Amaxa Nucleofector solution V and supplement I were mixed and 100 μl was added into the tube with DNA construct. The mixture was then added to the cells and transferred to the electroporation cuvette. Electroporation was done under setting X-001 using Amaxa Nucleofector II Device. 0.5 ml of growth media was added immediately after eletroporation and the mixture were transferred into 2 ml growth media in one well of the 6-well plate. The cells were incubated in the 37° C. incubator with 5% CO2 overnight. Rabbit polyclonal antibody against myc tag was added to the cells which were transfected with RCAR construct with myc tag as the extracellular domain. The concentration of the polyclonal antibody was at 100 nM. One and half hour later, 100 nM of anti rabbit antibody was added in order to enhance cluster formation. The cell mixture was incubated at 37° C. for 18 hrs. Luciferase One Glo reagent 100 μl was added per well. The samples were incubated for 5 min at 37° C. and then luminescence was measured using a luminometer.
Similarly, a construct with Flag peptide tag as the extracellular domain was used to transfect reporter cells. Rabbit polyclonal antibody against Flag peptide tag was used at 100 nM; and to facilitate further clustering, an antibody against the rabbit polyclonal antibody was used at 100 nM. In addition, a construct with scFv 139 as the extracellular domain was used to transfect reporter cells, and EGFRvIII-Fc at 100 nM was used, and one and half hour later anti-Fc antibody was used.

[6] = test system: reporter under NFAT control in JNL cells; assay: Dimerization molecule dose response, single vector construct 143775 in JNL cells, CD19 target; assay type: cell-based; conditions: nM to sub-nM doses
Text: The constructs and viral particles were made and tested essentially as described in Example 11. Viral particles were introduced into JNL cells and evaluated for activity essentially as described in Example 1 except that the target was CD19 (as opposed to EGFRviii).
Construct 143775 was introduced into cells and the affect of dimerization molecule concentration on activation evaluated essentially as described in Example 14.

biotinylated FKBP in the presence of everolimus, sequence (P62942 2-108 limits assumed): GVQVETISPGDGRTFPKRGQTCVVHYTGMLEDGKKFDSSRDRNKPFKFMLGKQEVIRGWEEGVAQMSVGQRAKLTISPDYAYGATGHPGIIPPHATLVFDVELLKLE

Compound: T2098L: FRB point mutant; His-FRB SEQ ID NO: 209, His-FLAG-FRB SEQ ID NO: 215
- EC50 [1]: 1.44 nM

Compound: E2032L: FRB point mutant; His-FRB SEQ ID NO: 208, His-FLAG-FRB SEQ ID NO: 214
- EC50 [1]: 2.15 nM

Compound: E2032I: FRB point mutant; His-FRB SEQ ID NO: 207, His-FLAG-FRB SEQ ID NO: 213
- EC50 [1]: 2.46 nM

Compound: Wild type FRB: wild-type FRB; His-FRB SEQ ID NO: 206 (competition), His-FLAG-FRB SEQ ID NO: 212 (direct binding)
- EC50 [1]: 3.9 nM

Compound: CO[C@H]1[C@@H](O)[C@H](C)C[C@H](C)/C=C/C=C/C=C(\C)[C@@H](c2c[nH]c3c(C)cccc23)C[C@@H]2CC[C@@H](C)[C@@](O)(O2)C(=O)C(=O)N2CCCC[C@H]2C(=O)O[C@H]([C@H](C)CC2CC[C@@H](O)[C@H](OC)C2)C[C@H](O)[C@H](C)/C=C(\C)[C@H]1O (some centres unmarked) [AP21967]
- induction of signaling by PDL-1 target ([2]; 500 nM AP21967, PD1 RCAR (PD1-ECD-TM-FRB and FKBP-41BB-CD3 zeta)): significant induction of signaling
- dose response, activation of NFAT signaling ([2]; varying concentrations, PD1 RCAR, FIG. 18): potent even at sub nM concentration
- fold of induction of NFAT mediated by the target ([3]; 0.8 nM rapalogue, constructs 66 and 67): 2-3 fold
- fold activation of NFAT ([3]; 500 nM to as low as 20 nM, constructs 66 and 67, FIG. 12B): remained relatively constant
- target regulated activation ([3]; 500 nM, EGFRvIII-Fc target, FIG. 12A): significant target regulated activation
- target regulated activation [4]: significant target regulated activation

Compound: RCAR with Flag tag: flag peptide tag fused to linker, 4-1BB and CD3zeta, SEQ ID NO: 20
- activation ([5]; rabbit polyclonal anti-Flag antibody and anti-rabbit antibody, 100 nM each): only showed activation when both crosslinking reagents were added

Compound: CO[C@H]1C[C@@H]2CC[C@@H](C)[C@@](O)(O2)C(=O)C(=O)N2CCCC[C@H]2C(=O)O[C@H]([C@H](C)C[C@@H]2CC[C@@H](O)[C@H](OC)C2)CC(=O)[C@H](C)/C=C(\C)[C@@H](O)[C@@H](OC)C(=O)[C@H](C)C[C@H](C)/C=C/C=C/C=C/1C [rapamycin]
- activation [6]: effective at a broad range of concentrations

Compound: RCAR with c-myc peptide tag: c-myc peptide tag fused to linker, 4-1BB and CD3zeta, SEQ ID NO: 21
- activation after addition of anti rabbit antibody ([5]; anti-myc antibody 100 nM plus anti rabbit antibody 100 nM): further enhanced
- NFAT activity ([5]; rabbit polyclonal anti-myc antibody 100 nM, compared to other antibodies): higher NFAT activity
